3 molecules from paper PMC3940083 (International Journal for Parasitology: Drugs and Drug …, 2013) can be followed below.

Holding throughout (format): biochemical
The target in assay [1] is T1, PfAdoMetDC/ODC (S-adenosyl-L-methionine decarboxylase, AdoMetDC domain) (Plasmodium falciparum, UniProt Q8IJ77).
T1 sequence (Q8IJ77 1-72): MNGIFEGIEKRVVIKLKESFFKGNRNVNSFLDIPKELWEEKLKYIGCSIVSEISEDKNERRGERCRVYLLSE
T1 sequence (Q8IJ77 73-1434): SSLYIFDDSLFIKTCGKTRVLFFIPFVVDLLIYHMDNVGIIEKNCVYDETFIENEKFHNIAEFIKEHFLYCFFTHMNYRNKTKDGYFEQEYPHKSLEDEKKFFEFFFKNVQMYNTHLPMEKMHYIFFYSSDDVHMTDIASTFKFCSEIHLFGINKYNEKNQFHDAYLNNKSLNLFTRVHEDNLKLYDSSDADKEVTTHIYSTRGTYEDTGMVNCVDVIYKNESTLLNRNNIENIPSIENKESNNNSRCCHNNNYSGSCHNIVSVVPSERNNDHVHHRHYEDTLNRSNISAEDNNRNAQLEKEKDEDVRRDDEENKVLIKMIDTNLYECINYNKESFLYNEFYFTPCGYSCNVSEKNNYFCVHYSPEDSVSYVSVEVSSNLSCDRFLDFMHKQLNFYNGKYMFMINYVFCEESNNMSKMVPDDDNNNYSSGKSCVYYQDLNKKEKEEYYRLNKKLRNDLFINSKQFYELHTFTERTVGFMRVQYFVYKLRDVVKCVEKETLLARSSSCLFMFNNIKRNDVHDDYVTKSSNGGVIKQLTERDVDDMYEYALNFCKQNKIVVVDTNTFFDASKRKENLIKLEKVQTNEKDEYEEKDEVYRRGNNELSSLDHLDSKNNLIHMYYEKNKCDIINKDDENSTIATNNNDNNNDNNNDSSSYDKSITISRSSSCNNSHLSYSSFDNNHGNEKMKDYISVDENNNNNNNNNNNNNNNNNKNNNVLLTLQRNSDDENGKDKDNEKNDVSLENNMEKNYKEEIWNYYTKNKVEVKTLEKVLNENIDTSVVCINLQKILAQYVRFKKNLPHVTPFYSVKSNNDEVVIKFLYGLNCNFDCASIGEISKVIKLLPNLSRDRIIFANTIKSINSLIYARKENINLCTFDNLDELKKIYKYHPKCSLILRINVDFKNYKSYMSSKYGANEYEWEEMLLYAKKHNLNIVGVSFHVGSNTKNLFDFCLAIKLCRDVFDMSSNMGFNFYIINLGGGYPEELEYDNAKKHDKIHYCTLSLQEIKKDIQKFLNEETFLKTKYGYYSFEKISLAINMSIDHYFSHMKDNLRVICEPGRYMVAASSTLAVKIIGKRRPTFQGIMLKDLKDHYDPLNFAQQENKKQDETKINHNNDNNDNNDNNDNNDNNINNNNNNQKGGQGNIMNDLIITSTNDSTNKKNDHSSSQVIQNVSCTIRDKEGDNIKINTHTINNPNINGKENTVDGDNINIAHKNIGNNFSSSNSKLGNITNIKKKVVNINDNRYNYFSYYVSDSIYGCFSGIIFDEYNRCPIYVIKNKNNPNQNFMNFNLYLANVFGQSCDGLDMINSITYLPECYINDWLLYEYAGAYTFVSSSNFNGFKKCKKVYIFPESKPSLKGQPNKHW
The following applies: read-out: Ki.

Assay [2] concerns the target T2, PfAdoMetDC (S-adenosyl-L-methionine decarboxylase) (Plasmodium falciparum, UniProt Q8IJ77).
T2 sequence (Q8IJ77 1-72 limits assumed): T1 sequence (Q8IJ77 1-72)
T2 sequence (Q8IJ77 73-529 limits assumed): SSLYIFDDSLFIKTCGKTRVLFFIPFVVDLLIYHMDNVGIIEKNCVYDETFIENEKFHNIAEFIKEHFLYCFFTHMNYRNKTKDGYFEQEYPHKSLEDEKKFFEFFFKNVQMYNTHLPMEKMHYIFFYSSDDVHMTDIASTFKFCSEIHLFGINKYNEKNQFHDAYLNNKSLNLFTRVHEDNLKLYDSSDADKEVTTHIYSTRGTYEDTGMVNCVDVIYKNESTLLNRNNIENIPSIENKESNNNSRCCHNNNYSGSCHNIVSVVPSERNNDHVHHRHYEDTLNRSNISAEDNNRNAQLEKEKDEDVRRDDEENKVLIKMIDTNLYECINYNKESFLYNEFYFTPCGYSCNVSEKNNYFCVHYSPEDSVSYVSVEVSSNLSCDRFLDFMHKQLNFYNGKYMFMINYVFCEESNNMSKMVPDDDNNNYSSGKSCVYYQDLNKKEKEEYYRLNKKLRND
The note with it: read-out: Ki.

Assay [3] has as its target T2, PfAdoMetDC (S-adenosyl-L-methionine decarboxylase). The experiment in a line: radiolabeled CO2 release assay, % inhibition at […]. The following applies: read-out: % inhibition at 1 μM.

By inhibition is commonly meant the share of the control response that was lost under treatment.

On to `Cc1nc2c(N)ncnc2n1[C@@H]1O[C@H](CN(C)C/C=C\CN)[C@@H](O)[C@H]1O` [Genz-644131, 8-methyl-5′-{[(Z)-4-aminobut-2-enyl]methylamino}-5′-deoxyadenosine], for which the KI (inactivation) in assay [1] worked out at 180 ± 20 nM.

`CN(C/C=C\CN)C[C@H]1O[C@@H](n2cnc3c(N)ncnc32)[C@H](O)[C@@H]1O` [MDL73811, 5′-{[(Z)-4-amino-2-butenyl]methylamino}-5′-deoxyadenosine]: the KI (inactivation) in assay [2] came out at 220 ± 90 nM.

In the case of `CN(C/C=C\CN)C[C@H]1O[C@@H](n2cnc3c(N)ncnc32)[C@@](O)(F)[C@@H]1O` [Genz-644043, 2′-fluoro-5′-{[(Z)-4-amino-2-butenyl]methylamino}-5′-deoxyadenosine], the inhibition at 1 µM in assay [3] is 57%.
